From ChEMBL document CHEMBL1201862, “PubChem BioAssay data set” (2004)
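Where inhibition never reached the appropriate level, the endpoint shown equals the highest concentration tested. Otherwise, values were interpolated linearly from a five-concentration, 48-hour dose response in 96-well plates. GI50 marks 50% less growth.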 Active and inactive are the calls of the source. Rule as the data show it: active = GI50 up to about 1.1 µM and inactive = higher.

Tests used:
Assay in all cases: DTP human tumour cell line panel, 48 h
MDA-MB-231 = system: MDA-MB-231
OVCAR-4 = system: OVCAR-4
UACC-62 = system: UACC-62
ACHN = system: ACHN
HCC 2998 = system: HCC 2998
CCRF-CEM = system: CCRF-CEM
Hs-578T = system: Hs-578T
SK-MEL-28 = system: SK-MEL-28
K562 = system: K562
MCF7 = system: MCF7
MOLT-4 = system: MOLT-4
T47D = system: T47D
LOX IMVI = system: LOX IMVI
UACC-257 = system: UACC-257
EKVX = system: EKVX
HCT-15 = system: HCT-15
TK-10 = system: TK-10
NCI-H460 = system: NCI-H460
BT-549 = system: BT-549

| SMILES | GI50 (MDA-MB-231) | GI50 (OVCAR-4) | GI50 (UACC-62) | GI50 (ACHN) | GI50 (HCC 2998) | GI50 (CCRF-CEM) | GI50 (Hs-578T) | GI50 (SK-MEL-28) | GI50 (K562) | GI50 (MCF7) | GI50 (MOLT-4) | GI50 (T47D) | GI50 (LOX IMVI) | GI50 (UACC-257) | GI50 (EKVX) | GI50 (HCT-15) | GI50 (TK-10) | GI50 (NCI-H460) | GI50 (BT-549) |
| --- | --- | --- | --- | --- | --- | --- | --- | --- | --- | --- | --- | --- | --- | --- | --- | --- | --- | --- | --- |
| C=CCC1(Sc2ccccn2)Sc2ccc3ccccc3c2-c2c(ccc3ccccc23)S1 | > 100 µM (inactive) | > 100 µM (inactive) | > 100 µM (inactive) | > 100 µM (inactive) | > 100 µM (inactive) | > 100 µM (inactive) | > 100 µM (inactive) | > 100 µM (inactive) | > 100 µM (inactive) | > 100 µM (inactive) | > 100 µM (inactive) | > 100 µM (inactive) | > 100 µM (inactive) | > 100 µM (inactive) | > 100 µM (inactive) | > 100 µM | > 100 µM (inactive) | > 100 µM (inactive) | – |
| N#CC1C(=O)N(c2ccccc2)NC12OC(=O)c1ccncc12 (configuration not stated) | > 20 µM (inactive) | > 20 µM (inactive) | > 20 µM (inactive) | > 20 µM (inactive) | > 20 µM (inactive) | > 20 µM (inactive) | – | > 20 µM (inactive) | > 20 µM (inactive) | > 20 µM (inactive) | > 20 µM (inactive) | > 20 µM (inactive) | > 20 µM (inactive) | > 20 µM (inactive) | > 20 µM (inactive) | > 20 µM | – | > 20 µM (inactive) | > 20 µM (inactive) |
| COc1ccc(-c2nc(-c3cnccn3)n(C3OC(CO)C(O)C3O)n2)cc1 (configuration not stated) | – | > 10 µM (inactive) | > 10 µM (inactive) | > 10 µM (inactive) | > 10 µM (inactive) | > 10 µM (inactive) | – | – | > 10 µM (inactive) | > 10 µM (inactive) | > 10 µM (inactive) | – | > 10 µM (inactive) | > 10 µM (inactive) | > 10 µM (inactive) | > 10 µM | > 10 µM (inactive) | > 10 µM (inactive) | > 10 µM (inactive) |
| CN1CN(c2ccccc2)C2(CCN(CCc3csc4ccccc34)CC2)C1=O | > 10 µM (inactive) | – | 19.9 µM (inactive) | > 10 µM (inactive) | 7.21 µM (inactive) | 12.3 µM (inactive) | – | 15.7 µM (inactive) | 14.8 µM (inactive) | 13.3 µM (inactive) | 10.3 µM (inactive) | 18.3 µM (inactive) | 13.7 µM (inactive) | 14.4 µM (inactive) | 12.8 µM (inactive) | 10.7 µM | 14 µM (inactive) | – | 4.71 µM (inactive) |
| COc1ccc(/N=N/c2c(C)c(C#N)c(=S)n(C3OC(COC(C)=O)C(OC(C)=O)C(OC(C)=O)C3OC(C)=O)c2-c2ccccc2)cc1 (configuration not stated) | 6.04 µM (inactive) | 3.15 µM (inactive) | – | 46.9 µM (inactive) | 23.4 µM (inactive) | 4.94 µM (inactive) | – | 7.98 µM (inactive) | 4.52 µM (inactive) | 4.62 µM (inactive) | 3.08 µM (inactive) | 19.4 µM (inactive) | 5.42 µM (inactive) | 22.4 µM (inactive) | – | 14.9 µM | 19.2 µM (inactive) | 4.76 µM (inactive) | 5.33 µM (inactive) |
| COc1ccc2c(c1)C1Oc3ccccc3CC1(O)CO2 (configuration not stated) | > 100 µM (inactive) | > 100 µM (inactive) | > 100 µM (inactive) | > 100 µM (inactive) | > 100 µM (inactive) | > 100 µM (inactive) | – | – | > 100 µM (inactive) | > 100 µM (inactive) | > 100 µM (inactive) | > 100 µM (inactive) | > 100 µM (inactive) | > 100 µM (inactive) | > 100 µM (inactive) | > 100 µM | > 100 µM (inactive) | – | > 100 µM (inactive) |
| CS/C(=N\S(=O)(=O)c1ccc(Cl)cc1)NCCCCN/C(=N/S(=O)(=O)c1ccc(Cl)cc1)SC | > 100 µM (inactive) | > 100 µM (inactive) | > 100 µM (inactive) | > 100 µM (inactive) | > 100 µM (inactive) | > 100 µM (inactive) | – | 95.3 µM (inactive) | > 100 µM (inactive) | > 100 µM (inactive) | > 10 µM (inactive) | > 100 µM (inactive) | > 100 µM (inactive) | > 100 µM (inactive) | > 100 µM (inactive) | > 100 µM | > 100 µM (inactive) | > 100 µM (inactive) | – |
| CC(=O)OC1COC(n2nc(N)nc2C)C(OC(C)=O)C1OC(C)=O (configuration not stated) | > 100 µM (inactive) | > 100 µM (inactive) | > 100 µM (inactive) | > 100 µM (inactive) | > 100 µM (inactive) | > 100 µM (inactive) | – | > 100 µM (inactive) | > 100 µM (inactive) | > 100 µM (inactive) | > 100 µM (inactive) | > 100 µM (inactive) | > 100 µM (inactive) | > 100 µM (inactive) | > 100 µM (inactive) | > 100 µM | > 100 µM (inactive) | > 100 µM (inactive) | > 100 µM (inactive) |
| CS/C(=N\C#N)NC1CC(n2cc(C)c(=O)[nH]c2=O)OC1CO (configuration not stated) | > 100 µM (inactive) | > 100 µM (inactive) | > 100 µM (inactive) | > 100 µM (inactive) | > 100 µM (inactive) | > 100 µM (inactive) | – | > 100 µM (inactive) | > 100 µM (inactive) | > 100 µM (inactive) | > 100 µM (inactive) | > 100 µM (inactive) | > 100 µM (inactive) | > 100 µM (inactive) | > 100 µM (inactive) | > 100 µM | > 100 µM (inactive) | > 100 µM (inactive) | – |
| O=C([O-])C(O)C(O)C(O)C(O)C(=O)O.[K+] (configuration not stated) | > 100 µM (inactive) | > 100 µM (inactive) | > 100 µM (inactive) | > 100 µM (inactive) | > 100 µM (inactive) | > 100 µM (inactive) | – | > 100 µM (inactive) | > 100 µM (inactive) | > 100 µM (inactive) | > 100 µM (inactive) | > 100 µM (inactive) | > 100 µM (inactive) | > 100 µM (inactive) | > 100 µM (inactive) | > 100 µM | – | > 100 µM (inactive) | – |
| C[N+]1(C)C(c2ccccc2)C(=O)O[B@-]1(F)c1ccccc1 (some centres not stated) | > 100 µM (inactive) | > 100 µM (inactive) | > 100 µM (inactive) | > 100 µM (inactive) | > 100 µM (inactive) | > 100 µM (inactive) | – | > 100 µM (inactive) | > 100 µM (inactive) | > 100 µM (inactive) | > 100 µM (inactive) | > 100 µM (inactive) | > 100 µM (inactive) | > 100 µM (inactive) | > 100 µM (inactive) | > 100 µM | > 100 µM (inactive) | > 100 µM (inactive) | > 100 µM (inactive) |
| CC(C)[C@@H]1NC(=O)[C@@H]2N=C(O[C@H]2C)[C@H](C(C)C)NC(=O)C2N=C1O[C@H]2C | > 100 µM (inactive) | > 100 µM (inactive) | > 100 µM (inactive) | > 100 µM (inactive) | > 100 µM (inactive) | > 100 µM (inactive) | > 100 µM (inactive) | > 100 µM (inactive) | > 100 µM (inactive) | > 100 µM (inactive) | > 100 µM (inactive) | > 100 µM (inactive) | > 100 µM (inactive) | > 100 µM (inactive) | > 100 µM (inactive) | > 100 µM | > 100 µM (inactive) | > 100 µM (inactive) | – |
